# Results published in ChEMBL document CHEMBL1201862, “PubChem BioAssay data set” (2004).
# Calls of active or inactive are those of the source.
# Tests used:
# HEK293 [1] = assay: cells; assay type: functional, cell-based; settings: Homo sapiens
# Streptococcus = assay: Group A Streptococcus viability loss, dose response, counter-screen for streptokinase expression inhibitor project, luminescence, BacTiterGlo (AID 1915); assay type: functional, organism-based;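 also: potency for reduction of bacterial viability or growth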
# Streptokinase A = biological target: T1, Streptokinase A (Streptococcus pyogenes serotype M1, UniProt P10520); assay: S. pyogenes streptokinase expression inhibitors, potency, dose response, plasminogen activation absorbance, OD405 (AID 1914); assay type: functional, Streptococcus pyogenes M1 GAS;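 also: secreted streptokinase activity via plasminogen activation per viability signal from cell pellet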
# T1 sequence (P10520 whole entry): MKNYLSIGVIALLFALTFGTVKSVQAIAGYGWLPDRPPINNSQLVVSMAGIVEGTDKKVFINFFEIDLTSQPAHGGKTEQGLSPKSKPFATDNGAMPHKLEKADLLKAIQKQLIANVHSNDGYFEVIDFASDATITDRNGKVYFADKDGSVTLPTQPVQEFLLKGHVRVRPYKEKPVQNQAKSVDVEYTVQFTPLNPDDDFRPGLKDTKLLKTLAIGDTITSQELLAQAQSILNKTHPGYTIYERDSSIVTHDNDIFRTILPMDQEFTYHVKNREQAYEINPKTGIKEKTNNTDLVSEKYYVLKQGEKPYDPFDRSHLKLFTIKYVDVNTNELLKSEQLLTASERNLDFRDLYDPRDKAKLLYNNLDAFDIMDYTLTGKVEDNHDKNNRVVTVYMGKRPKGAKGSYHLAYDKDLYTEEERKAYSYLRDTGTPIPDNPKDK
# [2] = system: Streptococcus sp. 'group A'; assay: growth inhibition of control SK(-) GAS strain, dose response, counter-screen for streptokinase expression inhibitor project, luminescence, kanamycin, BacTiterGlo, confirmation (AID 1900); assay type: functional, organism-based
# Genome polyprotein = Genome polyprotein (dengue virus type 2, UniProt P29990); assay: Dengue-2 NS5 methyltransferase inhibitors, primary screen, biochemical, confirmation dose response (AID 588689); assay type: functional
# Phospholipase A2 = Phospholipase A2 (Homo sapiens, UniProt P04054); assay type: functional;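 also: confirmatory dose-response counterscreen on phospholipase A2, testing hits that came from an ultra-high-throughput screen for ATG4B inhibitors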
# Sequence of Phospholipase A2 (P04054 whole entry): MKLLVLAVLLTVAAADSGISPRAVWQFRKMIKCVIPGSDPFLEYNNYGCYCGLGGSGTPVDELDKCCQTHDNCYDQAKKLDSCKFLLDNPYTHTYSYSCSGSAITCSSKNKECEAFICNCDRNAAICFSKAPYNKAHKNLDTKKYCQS
# Vero = Vero cell cytotoxicity, cytotoxicity control for flavivirus capping enzyme inhibitors (AID 588742); assay type: functional; settings: Chlorocebus sabaeus
# [3] = HIV-1 Env-mediated cell fusion inhibitors, dose response, CCR5-tropic Env (AID 2279); assay type: functional
# HEK293 [4] = assay: NOD2 signaling inhibitors in MDP-stimulated cells, cell-based, uHTS, luminescence (AID 2001); assay type: functional; settings: Homo sapiens
# HEK293 [5] = assay: cells; assay type: functional, cell-based; settings: Homo sapiens; remark: listed apart in the source
# HEK293 [6] = assay: NOD1 signaling inhibitors, primary screen, cell-based, luminescence, uHTS (AID 1578); assay type: functional; settings: Homo sapiens
# Cysteine protease ATG4B = Cysteine protease ATG4B (Homo sapiens, UniProt Q9Y4P1); assay type: functional;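 also: Fluorescence-based dose-response confirmation assay measuring inhibition of ATG4B activity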
# [7] = biological target: Cyclin-dependent kinase 8 (Homo sapiens, UniProt P49336); assay: Navigating the Kinome. Panel member name: CDK8; assay type: functional
# Sequence of Cyclin-dependent kinase 8 (P49336 whole entry): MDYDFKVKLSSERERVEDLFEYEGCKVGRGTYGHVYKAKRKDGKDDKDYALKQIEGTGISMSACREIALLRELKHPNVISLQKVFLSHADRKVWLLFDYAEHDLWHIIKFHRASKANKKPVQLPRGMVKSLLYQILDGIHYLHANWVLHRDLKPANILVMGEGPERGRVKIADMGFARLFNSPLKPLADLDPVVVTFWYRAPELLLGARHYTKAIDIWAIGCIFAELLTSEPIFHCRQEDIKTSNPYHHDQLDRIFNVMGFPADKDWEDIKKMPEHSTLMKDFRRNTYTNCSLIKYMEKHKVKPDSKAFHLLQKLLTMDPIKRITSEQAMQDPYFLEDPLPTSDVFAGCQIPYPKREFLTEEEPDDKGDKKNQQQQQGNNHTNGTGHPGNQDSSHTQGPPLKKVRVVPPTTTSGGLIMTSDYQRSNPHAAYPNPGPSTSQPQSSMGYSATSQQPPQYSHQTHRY
# [8] = biological target: Tyrosine-protein kinase BTK (Homo sapiens, UniProt Q06187); assay type: functional
# [9] = biological target: Serine/threonine-protein kinase TAO1 (Homo sapiens, UniProt Q7L7X3); assay type: functional
# Sequence of Serine/threonine-protein kinase TAO1 (Q7L7X3 whole entry): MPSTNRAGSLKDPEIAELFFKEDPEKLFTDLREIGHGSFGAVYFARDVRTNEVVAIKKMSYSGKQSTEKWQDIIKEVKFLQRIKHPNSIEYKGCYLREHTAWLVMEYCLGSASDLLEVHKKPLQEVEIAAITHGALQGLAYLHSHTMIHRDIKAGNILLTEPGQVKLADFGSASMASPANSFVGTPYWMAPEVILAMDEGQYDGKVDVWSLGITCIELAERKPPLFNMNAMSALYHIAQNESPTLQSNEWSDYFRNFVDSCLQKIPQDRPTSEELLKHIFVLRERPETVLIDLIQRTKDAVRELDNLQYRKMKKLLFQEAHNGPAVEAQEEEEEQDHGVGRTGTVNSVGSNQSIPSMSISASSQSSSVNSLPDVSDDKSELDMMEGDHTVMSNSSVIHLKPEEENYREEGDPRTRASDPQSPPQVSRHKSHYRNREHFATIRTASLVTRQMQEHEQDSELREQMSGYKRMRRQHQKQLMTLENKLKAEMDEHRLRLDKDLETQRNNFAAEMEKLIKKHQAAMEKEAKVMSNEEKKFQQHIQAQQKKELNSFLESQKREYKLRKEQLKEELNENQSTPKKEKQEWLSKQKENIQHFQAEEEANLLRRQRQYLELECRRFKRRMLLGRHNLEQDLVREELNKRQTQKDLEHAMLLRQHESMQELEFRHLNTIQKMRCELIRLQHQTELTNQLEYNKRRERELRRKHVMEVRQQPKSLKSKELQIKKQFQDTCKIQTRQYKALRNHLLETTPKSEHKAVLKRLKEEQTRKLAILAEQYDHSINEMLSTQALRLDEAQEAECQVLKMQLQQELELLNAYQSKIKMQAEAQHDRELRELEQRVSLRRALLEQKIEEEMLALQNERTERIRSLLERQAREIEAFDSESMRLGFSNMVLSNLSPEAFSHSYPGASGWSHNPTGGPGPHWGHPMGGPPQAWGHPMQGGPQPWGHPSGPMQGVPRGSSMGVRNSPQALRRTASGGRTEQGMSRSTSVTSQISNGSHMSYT
# [10] = biological target: ALK tyrosine kinase receptor (Homo sapiens, UniProt Q9UM73); assay type: functional;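 also: ALK tested as one member of a kinase panel screen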
# [11] = biological target: Proto-oncogene tyrosine-protein kinase receptor Ret (Homo sapiens, UniProt P07949); assay type: functional;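 also: measured within a kinome-wide profiling panel, RET as the panel member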
# Sequence of Proto-oncogene tyrosine-protein kinase receptor Ret (P07949 whole entry): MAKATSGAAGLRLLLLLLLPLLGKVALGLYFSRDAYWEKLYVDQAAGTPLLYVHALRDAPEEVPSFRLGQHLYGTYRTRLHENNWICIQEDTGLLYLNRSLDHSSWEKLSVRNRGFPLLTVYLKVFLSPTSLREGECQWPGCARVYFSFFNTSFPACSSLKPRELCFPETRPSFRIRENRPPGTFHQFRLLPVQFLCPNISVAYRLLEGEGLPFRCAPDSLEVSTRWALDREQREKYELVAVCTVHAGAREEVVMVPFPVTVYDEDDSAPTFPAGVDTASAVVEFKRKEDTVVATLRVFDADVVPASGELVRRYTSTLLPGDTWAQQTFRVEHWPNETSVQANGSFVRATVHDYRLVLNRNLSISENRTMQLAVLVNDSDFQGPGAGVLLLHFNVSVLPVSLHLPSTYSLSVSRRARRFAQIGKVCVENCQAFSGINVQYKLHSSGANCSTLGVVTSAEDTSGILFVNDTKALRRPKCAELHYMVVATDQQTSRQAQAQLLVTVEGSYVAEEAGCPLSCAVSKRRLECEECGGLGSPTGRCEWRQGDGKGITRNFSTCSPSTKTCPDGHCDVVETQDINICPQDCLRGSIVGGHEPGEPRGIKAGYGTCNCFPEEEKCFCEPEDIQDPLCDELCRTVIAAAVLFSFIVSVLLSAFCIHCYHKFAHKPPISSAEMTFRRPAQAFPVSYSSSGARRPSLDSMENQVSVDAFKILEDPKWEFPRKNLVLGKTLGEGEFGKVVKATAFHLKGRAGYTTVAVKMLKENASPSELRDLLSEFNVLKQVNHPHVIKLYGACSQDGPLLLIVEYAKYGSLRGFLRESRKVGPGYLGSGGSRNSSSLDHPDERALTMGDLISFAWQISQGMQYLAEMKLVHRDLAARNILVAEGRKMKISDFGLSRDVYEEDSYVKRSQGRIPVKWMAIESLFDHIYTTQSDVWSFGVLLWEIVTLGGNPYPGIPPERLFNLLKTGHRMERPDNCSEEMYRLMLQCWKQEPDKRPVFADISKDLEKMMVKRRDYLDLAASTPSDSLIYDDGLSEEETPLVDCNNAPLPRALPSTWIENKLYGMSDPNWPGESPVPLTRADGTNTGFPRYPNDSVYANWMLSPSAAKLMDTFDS
# [12] = biological target: Tyrosine-protein kinase Fyn (Homo sapiens, UniProt P06241); assay type: functional
# Focal adhesion kinase 1 = Focal adhesion kinase 1 (Homo sapiens, UniProt Q05397); assay type: functional;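 also: measured as one member of a kinome panel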
# [13] = biological target: Tyrosine-protein kinase Lck (Homo sapiens, UniProt P06239); assay type: functional;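 also: lck was assayed as one member of a kinase panel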
# Sequence of Tyrosine-protein kinase Lck (P06239 whole entry): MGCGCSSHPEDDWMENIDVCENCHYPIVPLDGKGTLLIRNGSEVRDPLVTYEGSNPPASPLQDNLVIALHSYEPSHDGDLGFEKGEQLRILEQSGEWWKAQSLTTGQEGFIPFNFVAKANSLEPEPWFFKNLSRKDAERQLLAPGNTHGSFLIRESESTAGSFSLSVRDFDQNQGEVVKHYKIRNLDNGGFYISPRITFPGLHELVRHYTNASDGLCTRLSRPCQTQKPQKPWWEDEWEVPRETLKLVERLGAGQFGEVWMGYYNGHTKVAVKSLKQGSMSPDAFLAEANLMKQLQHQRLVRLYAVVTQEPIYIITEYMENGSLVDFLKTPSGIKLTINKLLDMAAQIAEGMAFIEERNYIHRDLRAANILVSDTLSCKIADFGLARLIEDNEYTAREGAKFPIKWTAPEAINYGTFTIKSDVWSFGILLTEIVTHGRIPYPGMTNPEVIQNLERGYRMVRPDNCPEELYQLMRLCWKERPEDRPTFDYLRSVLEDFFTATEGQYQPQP
# [14] = biological target: Platelet-derived growth factor receptor alpha (Homo sapiens, UniProt P16234); assay: Navigating the Kinome. Panel member name: PDGFRA; assay type: functional
# [15] = biological target: Calcium/calmodulin-dependent protein kinase type II subunit alpha (Homo sapiens, UniProt Q9UQM7); assay: Navigating the Kinome. Panel member name: CAMK2A; assay type: functional
# Sequence of Calcium/calmodulin-dependent protein kinase type II subunit alpha (Q9UQM7 whole entry): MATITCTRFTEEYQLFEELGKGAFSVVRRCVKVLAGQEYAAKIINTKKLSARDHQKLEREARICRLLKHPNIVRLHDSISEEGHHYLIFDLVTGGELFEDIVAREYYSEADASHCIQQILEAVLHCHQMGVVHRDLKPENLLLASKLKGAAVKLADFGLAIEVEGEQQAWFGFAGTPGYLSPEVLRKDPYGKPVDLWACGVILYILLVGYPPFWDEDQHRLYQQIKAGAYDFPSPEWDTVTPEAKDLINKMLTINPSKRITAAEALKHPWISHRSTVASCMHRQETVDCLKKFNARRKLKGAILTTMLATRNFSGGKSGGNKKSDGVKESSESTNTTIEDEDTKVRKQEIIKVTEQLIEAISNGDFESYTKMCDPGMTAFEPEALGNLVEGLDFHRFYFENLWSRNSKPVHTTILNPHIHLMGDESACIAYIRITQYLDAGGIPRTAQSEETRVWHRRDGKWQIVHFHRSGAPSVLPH
# INS1 [16] = assay: inhibitors of cytokine-induced nitrite release, dose response, cell-based, Griess absorbance, INS-1E, dry powder, set 2 (AID 488868); assay type: functional; settings: Rattus norvegicus
# INS1 [17] = assay: caspase-3/7 inhibition in cytokine-treated INS-1E, dose response, beta-cell apoptosis inhibitor project, cell-based, caspase luminescence, dry powder (AID 488848); assay type: functional; settings: Rattus norvegicus
# Wee1-like protein kinase = Wee1-like protein kinase (Homo sapiens, UniProt P30291); assay: Navigating the Kinome. Panel member name: WEE1; assay type: functional
# Sequence of Wee1-like protein kinase (P30291 whole entry): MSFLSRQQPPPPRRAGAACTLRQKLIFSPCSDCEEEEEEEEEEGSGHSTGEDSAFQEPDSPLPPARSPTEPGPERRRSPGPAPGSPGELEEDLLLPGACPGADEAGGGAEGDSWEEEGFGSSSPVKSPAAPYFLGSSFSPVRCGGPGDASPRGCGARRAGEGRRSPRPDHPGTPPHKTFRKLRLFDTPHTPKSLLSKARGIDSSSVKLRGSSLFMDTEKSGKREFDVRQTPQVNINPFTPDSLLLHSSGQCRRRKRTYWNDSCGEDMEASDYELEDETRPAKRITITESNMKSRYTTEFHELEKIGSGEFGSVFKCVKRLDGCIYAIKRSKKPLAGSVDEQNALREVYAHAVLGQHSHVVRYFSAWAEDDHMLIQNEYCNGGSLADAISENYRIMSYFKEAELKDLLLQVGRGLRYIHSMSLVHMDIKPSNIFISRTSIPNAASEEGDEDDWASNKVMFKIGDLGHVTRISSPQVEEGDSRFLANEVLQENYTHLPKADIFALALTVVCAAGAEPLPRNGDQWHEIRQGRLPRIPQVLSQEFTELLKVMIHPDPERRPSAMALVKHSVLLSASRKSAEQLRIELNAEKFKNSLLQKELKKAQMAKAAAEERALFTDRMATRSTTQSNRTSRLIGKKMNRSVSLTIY
# [18] = biological target: Cell division cycle 7-related protein kinase (Homo sapiens, UniProt O00311); assay type: functional;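 also: value obtained from a kinome-wide kinase panel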
# Sequence of Cell division cycle 7-related protein kinase (O00311 whole entry): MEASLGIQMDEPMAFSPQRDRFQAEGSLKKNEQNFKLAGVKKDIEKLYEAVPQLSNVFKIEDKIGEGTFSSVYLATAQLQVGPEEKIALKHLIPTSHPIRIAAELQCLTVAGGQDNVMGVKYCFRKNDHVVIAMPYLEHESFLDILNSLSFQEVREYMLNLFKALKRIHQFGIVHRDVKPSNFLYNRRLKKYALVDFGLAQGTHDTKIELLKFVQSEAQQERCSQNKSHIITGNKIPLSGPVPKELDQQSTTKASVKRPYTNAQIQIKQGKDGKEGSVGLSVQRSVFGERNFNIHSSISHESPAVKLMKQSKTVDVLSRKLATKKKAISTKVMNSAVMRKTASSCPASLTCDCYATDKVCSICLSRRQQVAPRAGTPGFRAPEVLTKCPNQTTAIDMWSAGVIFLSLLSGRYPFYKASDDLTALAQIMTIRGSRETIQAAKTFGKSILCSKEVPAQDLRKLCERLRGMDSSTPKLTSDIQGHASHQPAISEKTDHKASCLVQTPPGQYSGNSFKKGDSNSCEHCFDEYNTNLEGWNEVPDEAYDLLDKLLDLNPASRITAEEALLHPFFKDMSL
# Phospholipase D1 = Phospholipase D1 (Homo sapiens, UniProt Q13393); assay: PLD1 inhibitor potency in cells, dose response (AID 602151); assay type: functional;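 also: cellular PLD1 assay in Calu-1 cells stimulated with PMA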
# Phospholipase D2 = Phospholipase D2 (Homo sapiens, UniProt O14939); assay: PLD2 inhibitor potency in cells, dose response (AID 602147); assay type: functional;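 also: cellular assay in HEK293 cells overexpressing GFP-tagged PLD2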
# CAAX prenyl protease 2 [19] = biological target: T2, CAAX prenyl protease 2 (Saccharomyces cerevisiae S288c, UniProt Q03530); assay: yeast Rce1 CaaX protease inhibitors, dose response, biochemical, plate reader, dry powder retest (AID 588851)
# T2 sequence (Q03530 whole entry): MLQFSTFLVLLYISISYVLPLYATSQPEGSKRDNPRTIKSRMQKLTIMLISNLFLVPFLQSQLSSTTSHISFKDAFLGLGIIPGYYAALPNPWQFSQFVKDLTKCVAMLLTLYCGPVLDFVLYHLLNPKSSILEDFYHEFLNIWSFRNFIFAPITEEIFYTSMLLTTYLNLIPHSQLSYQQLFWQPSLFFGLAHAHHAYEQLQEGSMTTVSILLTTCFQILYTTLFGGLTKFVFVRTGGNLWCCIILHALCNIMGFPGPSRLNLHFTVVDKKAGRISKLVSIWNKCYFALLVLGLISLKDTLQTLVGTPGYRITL
# CAAX prenyl protease 2 [20] = biological target: T2, CAAX prenyl protease 2; assay type: biochemical
structure (smiles),measurement,setting,value
O=C(O)CCn1cc(/C=C/C(=O)c2ccc(Cl)cc2)c(-c2cccc(Br)c2)n1,IC50,HEK293 [1],10.6 µM (active)
same,EC50,Streptococcus,6.69 µM (active)
same,EC50,Streptokinase A,0.874 µM (active)
same,EC50,[2],4.35 µM (active)
same,IC50,Genome polyprotein,52.4 µM (active)
same,IC50,Phospholipase A2,8.65 µM (active)
same,CC50,Vero,> 40 µM (active)
same,IC50,[3],27.8 µM (active)
same,IC50,HEK293 [4],4.06 µM (active)
same,IC50,HEK293 [5],17.9 µM (active)
same,EC50,HEK293 [6],6.52 µM (active)
same,IC50,Cysteine protease ATG4B,13.5 µM (active)
CC(C)(C)c1cc(NC(=O)Nc2cccc3ccccc23)n(-c2cccc(C(=O)N(CCN)CCO)c2)n1,Ki,[7],3.16 µM (active)
same,Ki,[8],> 6.31 µM (inactive)
same,Ki,[9],2.51 µM (active)
same,Ki,[10],> 6.31 µM (inactive)
same,Ki,[11],1.26 µM (active)
same,Ki,[12],> 6.31 µM (inactive)
same,Ki,Focal adhesion kinase 1,> 6.31 µM (inactive)
same,Ki,[13],> 6.31 µM (inactive)
same,Ki,[14],0.794 µM (active)
same,Ki,[15],> 7.94 µM (inactive)
COc1ccc(S(=O)(=O)N(C)C[C@@H]2Oc3c(NC(=O)c4cccc5ccccc45)cccc3C(=O)N([C@@H](C)CO)C[C@H]2C)cc1,AC50,INS1 [16],84.8 µM (active)
same,AC50,INS1 [17],> 195 µM (inactive)
Fc1ccc(Nc2ncnc(Nc3ccc4cn[nH]c4c3)n2)cc1,Ki,Wee1-like protein kinase,> 3.16 µM (inactive)
same,Ki,[18],0.0501 µM (active)
C[C@@H](CN1CCC(n2c(=O)[nH]c3ccccc32)CC1)NC(=O)c1cc2cc(F)ccc2[nH]1,IC50,Phospholipase D1,0.001 µM (active)
same,IC50,Phospholipase D2,0.13 µM (active)
Nc1nonc1-n1nnc(C(=O)N/N=C/c2cccc(Cl)c2)c1CSc1ccc(Cl)cc1,AC50,CAAX prenyl protease 2 [19],3.15 µM (active)
same,AC50,CAAX prenyl protease 2 [20],0.136 µM (active)
